From the supplement of paper PMC8612539
Values after ≈ are worked out from the molar mass of the structure shown.

Tested on: Histophilus somni
Test: minimum inhibitory concentration (MIC)
Procedure: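 Broth microdilution MIC (Sensititre BOPO7F bovine plate, CLSI methods) of 19 antimicrobials against field isolates of P. multocida, M. haemolytica, H. somni (deep nasopharyngeal swabs) and E. coli, Enterococcus spp. (rectal swabs) from weaned dairy heifers. Incubation 16-24 h at 35 C. MIC is the lowest concentration preventing visible growth. Values with <= or > lie at the tested range limits. Trimethoprim-sulfamethoxazole is given as the trimethoprim component of a 1:19 mixture.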

CC[C@H]1OC(=O)C[C@@H](O)[C@H](C)[C@@H](O[C@@H]2O[C@H](C)[C@@H](O[C@H]3C[C@@](C)(O)[C@@H](O)[C@H](C)O3)[C@H](N(C)C)[C@H]2O)[C@@H](CC=O)C[C@@H](C)C(=O)/C=C/C(C)=C/[C@@H]1CO[C@@H]1O[C@H](C)[C@@H](O)[C@@H](OC)[C@H]1OC [Tylosin]
Settings	minimum inhibitory concentration [µg/mL]
isolate (source animal id): 3	8 (≈ 8.73 µM)
isolate (source animal id): 4	8 (≈ 8.73 µM)
isolate (source animal id): 7	8 (≈ 8.73 µM)
isolate (source animal id): 14	8 (≈ 8.73 µM)
isolate (source animal id): 15	8 (≈ 8.73 µM)
isolate (source animal id): 17	8 (≈ 8.73 µM)
isolate (source animal id): 18	8 (≈ 8.73 µM)
isolate (source animal id): 20	8 (≈ 8.73 µM)
isolate (source animal id): 23	2 (≈ 2.18 µM)
isolate (source animal id): 45	16 (≈ 17.5 µM)
isolate (source animal id): 53	16 (≈ 17.5 µM)
isolate (source animal id): 83	4 (≈ 4.37 µM)
isolate (source animal id): 88	8 (≈ 8.73 µM)
isolate (source animal id): 92	8 (≈ 8.73 µM)
isolate (source animal id): 93	8 (≈ 8.73 µM)
isolate (source animal id): 99	4 (≈ 4.37 µM)
isolate (source animal id): 100	8 (≈ 8.73 µM)
isolate (source animal id): 105	4 (≈ 4.37 µM)
isolate (source animal id): 107	8 (≈ 8.73 µM)
isolate (source animal id): 108	4 (≈ 4.37 µM)
isolate (source animal id): 109	8 (≈ 8.73 µM)
isolate (source animal id): 110	8 (≈ 8.73 µM)
isolate (source animal id): 117	4 (≈ 4.37 µM)
isolate (source animal id): 121	8 (≈ 8.73 µM)
isolate (source animal id): 123	8 (≈ 8.73 µM)
isolate (source animal id): 124	8 (≈ 8.73 µM)
isolate (source animal id): 127	8 (≈ 8.73 µM)
isolate (source animal id): 128	8 (≈ 8.73 µM)
isolate (source animal id): 130	2 (≈ 2.18 µM)
isolate (source animal id): 132	8 (≈ 8.73 µM)
isolate (source animal id): 135	8 (≈ 8.73 µM)
isolate (source animal id): 140	8 (≈ 8.73 µM)
isolate (source animal id): 141	4 (≈ 4.37 µM)
isolate (source animal id): 142	> 32
isolate (source animal id): 144	8 (≈ 8.73 µM)
isolate (source animal id): 146	4 (≈ 4.37 µM)
isolate (source animal id): 147	> 32
isolate (source animal id): 151	8 (≈ 8.73 µM)
isolate (source animal id): 153	16 (≈ 17.5 µM)
isolate (source animal id): 154	> 32
isolate (source animal id): 156	> 32
isolate (source animal id): 157	16 (≈ 17.5 µM)
isolate (source animal id): 176	32 (≈ 34.9 µM)
isolate (source animal id): 183	16 (≈ 17.5 µM)
isolate (source animal id): 186	32 (≈ 34.9 µM)
isolate (source animal id): 196	8 (≈ 8.73 µM)
isolate (source animal id): 198	8 (≈ 8.73 µM)
isolate (source animal id): 200	8 (≈ 8.73 µM)
isolate (source animal id): 206	8 (≈ 8.73 µM)
isolate (source animal id): 208	16 (≈ 17.5 µM)
isolate (source animal id): 210	8 (≈ 8.73 µM)
isolate (source animal id): 212	4 (≈ 4.37 µM)
isolate (source animal id): 215	8 (≈ 8.73 µM)
isolate (source animal id): 216	16 (≈ 17.5 µM)
isolate (source animal id): 218	8 (≈ 8.73 µM)
isolate (source animal id): 219	8 (≈ 8.73 µM)
isolate (source animal id): 224	8 (≈ 8.73 µM)
isolate (source animal id): 228	16 (≈ 17.5 µM)
isolate (source animal id): 230	32 (≈ 34.9 µM)
isolate (source animal id): 233	16 (≈ 17.5 µM)
isolate (source animal id): 238	2 (≈ 2.18 µM)
isolate (source animal id): 239	16 (≈ 17.5 µM)
isolate (source animal id): 241	16 (≈ 17.5 µM)
isolate (source animal id): 242	16 (≈ 17.5 µM)
isolate (source animal id): 243	16 (≈ 17.5 µM)
isolate (source animal id): 245	16 (≈ 17.5 µM)
isolate (source animal id): 246	8 (≈ 8.73 µM)
isolate (source animal id): 247	16 (≈ 17.5 µM)
isolate (source animal id): 248	4 (≈ 4.37 µM)
isolate (source animal id): 250	16 (≈ 17.5 µM)
isolate (source animal id): 251	32 (≈ 34.9 µM)
isolate (source animal id): 252	16 (≈ 17.5 µM)
isolate (source animal id): 254	16 (≈ 17.5 µM)
isolate (source animal id): 258	8 (≈ 8.73 µM)
isolate (source animal id): 259	8 (≈ 8.73 µM)
isolate (source animal id): 262	8 (≈ 8.73 µM)
isolate (source animal id): 264	4 (≈ 4.37 µM)
isolate (source animal id): 265	4 (≈ 4.37 µM)
isolate (source animal id): 266	8 (≈ 8.73 µM)
isolate (source animal id): 267	4 (≈ 4.37 µM)
isolate (source animal id): 269	4 (≈ 4.37 µM)
isolate (source animal id): 271	8 (≈ 8.73 µM)
isolate (source animal id): 272	4 (≈ 4.37 µM)
isolate (source animal id): 274	8 (≈ 8.73 µM)
isolate (source animal id): 276	8 (≈ 8.73 µM)
isolate (source animal id): 278	4 (≈ 4.37 µM)
isolate (source animal id): 280	4 (≈ 4.37 µM)
isolate (source animal id): 281	8 (≈ 8.73 µM)
isolate (source animal id): 283	4 (≈ 4.37 µM)
isolate (source animal id): 288	8 (≈ 8.73 µM)
isolate (source animal id): 291	8 (≈ 8.73 µM)
isolate (source animal id): 292	8 (≈ 8.73 µM)
isolate (source animal id): 296	4 (≈ 4.37 µM)
isolate (source animal id): 306	8 (≈ 8.73 µM)
isolate (source animal id): 336	8 (≈ 8.73 µM)
isolate (source animal id): 337	8 (≈ 8.73 µM)
isolate (source animal id): 341	8 (≈ 8.73 µM)
